Legend:
[1] = Foam height test, Standard Test Method for Foaming Properties of Surface-Active Agents (ASTM 1173-07); assay type: physicochemical; details: 49° C.; for Foam height at time t = 0: t = 0 min; for Foam height at time t = 1: t = 1 min; for Foam height at time t = 2: t = 2 min; for Foam height at time t = 3: t = 3 min; for Foam height at time t = 4: t = 4 min; for Foam height at time t = 5: t = 5 min
From the text: The Standard Test Method for Foaming Properties of Surface-Active Agents (ASTM 1173-07) for 0.1 wt % and 1.0 wt % was used to determine the foaming properties of the amphoteric compounds of the formula 1 described herein. This method generates foam under low-agitation conditions and is generally used for moderate- and high-foam surfactants. This test gathers data on initial foam height and foam decay. Foam decay provides information on foam stability.
The apparatus for carrying out this test includes a jacketed column and a pipet. The jacketed column serves as a receiver, while the pipet delivers the surface-active solution.
Solutions of each surface-active agent to be measured were prepared in borosilicate glass jars a day ahead of time, using ambient temperature ingredients, and were slowly rolled overnight to homogenize. The solutions were then removed from the rollers and equilibrated in a constant temperature bath (49° C.+/−1° C.) for at least 1 hour before measurement. The solution of the amphoteric compound to be tested was added to the receiver (50 mL) and to the pipet (200 mL). The pipet was positioned above the receiver and opened. As the solution fell and made contact with the solution in the receiver, foam was generated. When the pipet was empty, the time was noted and an initial foam height was recorded. The foam height was recorded each minute for five minutes. Exact size specifications for the glassware can be found in ASTM 1173-07. The foam height results for each amphoteric compound 1 and representative standards are listed below in Tables 1 (0.1% concentration) and 2 (1% concentration).

[2] = Critical micelle concentration from surface tension (Wilhelmy plate, K100C Tensiometer); assay type: physicochemical; details: deionized water, ambient temperature
Experimental: The critical micelle concentration (CMC) is an important characteristic of a surfactant, and the CMC values were determined for the amphoteric compounds of formula 1. The CMC is defined as the concentration at which micelle formation first begins, and for surface tension determination of CMC, is typically assigned as the concentration of the intersection of two straight lines through the data, where the first line is the linear portion of the initial decline in surface tension with increasing surfactant concentration, and the second is the line of constant surface tension.
The critical micelle concentration was determined from plots of surface tension as a function of the logarithm of active surfactant concentration. Surface tension was measured via the Wilhelmy plate technique. In this method, the downward force of a rigorously clean plate probe that just contacts the liquid surface of the test sample is measured, and the surface tension is calculated from knowledge of the contact angle the liquid makes with the probe surface and the length of the probe plate.
A K100C Tensiometer (Kruss GmbH) was used to measure surface tension of solutions in a glass sample vessel. All measurements were made under ambient temperature conditions.
The tensiometer was equipped with a computer-controlled microdispensing and aspirating system to automate surfactant concentration adjustments of the test solution while maintaining constant solution volume between successive measurements. A roughened platinum plate probe was used. Cleanliness of probe, sample vessel, and microdispensing system was verified after cleaning between samples by measuring the surface tension of pure deionized water run through the system as a control.
100 mL of the 1 mg/L surfactant solution was added to the clean sample vessel and placed in the instrument. The plate probe was rinsed with deionized water and flame treated to combust off residual organic impurities, then mounted in position in the tensiometer. The experiment was initiated and run through the LabDesk version 3.2.2 (Kruss GmbH) software.
The surface tension measurements were run sequentially (and automatically) from most dilute to most concentrated by incrementally injecting known volume aliquots of the 10,000 mg/L surfactant solution into the sample, homogenizing the sample after injection by stirring for 30 seconds via a magnetic stir bar in the solution, and then aspirating out equal volume that was added to the sample vessel to keep the total sample volume constant for each measurement.
The sample vessel was then automatically moved into measurement position, and the surface tension measurement was made and recorded. This sequence was repeated until all concentrations had been measured.
The active surfactant concentration range spanned from 1 mg/L to 5000 mg/L over 50 concentration increments, equally spaced on a logarithmic scale over the full range of concentrations measured.
The sample at each concentration was measured 10 times, and the average of the 10 measures was plotted against the logarithm of the surfactant concentration.
After completing the full range of concentrations, the software provided best-fit lines to estimate CMC, and these regression lines were manually adjusted as needed to give the broadest range of linear behavior for each line.

Row | Compound | Foam height at time t = 0 ([1]; 1 g/L (0.1 weight %)) [mm] | Foam height at time t = 1 ([1]; 1 g/L (0.1 weight %)) [mm] | Foam height at time t = 2 ([1]; 1 g/L (0.1 weight %)) [mm] | Foam height at time t = 3 ([1]; 1 g/L (0.1 weight %)) [mm] | Foam height at time t = 4 ([1]; 1 g/L (0.1 weight %)) [mm] | Foam height at time t = 5 ([1]; 1 g/L (0.1 weight %)) [mm] | Foam height at time t = 0 ([1]; 10 g/L (1.0 weight %)) [mm] | Foam height at time t = 1 ([1]; 10 g/L (1.0 weight %)) [mm] | Foam height at time t = 2 ([1]; 10 g/L (1.0 weight %)) [mm] | Foam height at time t = 3 ([1]; 10 g/L (1.0 weight %)) [mm] | Foam height at time t = 4 ([1]; 10 g/L (1.0 weight %)) [mm] | Foam height at time t = 5 ([1]; 10 g/L (1.0 weight %)) [mm] | Critical micelle concentration (CMC) [2] [mg/L]
1 | (5-Laurylamino-5-oxopentyl)dimethylammonioacetate [Example 20] | 180 | 175 | 170 | 170 | 170 | 170 | 175 | 170 | 170 | 170 | 165 | 160 | –
2 | cocamidopropyl hydroxysultaine [reference compound] | – | – | – | – | – | – | – | – | – | – | – | – | 9.5
3 | CCCCCCCCCCCCOC(=O)CCCC[N+](C)(C)CC(O)CS(=O)(=O)[O-] (stereo not shown) [Example 9, 3-(4-(Lauryloxycarbonylbutyl)dimethylammonio)-2-hydroxypropanesulfonate] | 185 | 175 | 173 | 170 | 170 | 170 | 195 | 190 | 180 | 180 | 180 | 180 | –
4 | CCCCCCCCCCCC[N+](C)(C)CCCS(=O)(=O)[O-] [N-lauryl-N,N-dimethyl-3-ammonio-1-propanesulfonate, reference compound] | – | – | – | – | – | – | – | – | – | – | – | – | 962
5 | (4-Laurylamino-4-oxobutyl)dimethylammonioacetate [Example 11] | 174 | 172 | 171 | 171 | 170 | 170 | 182 | 180 | 179 | 178 | 178 | 177 | 76.5
6 | CCCCCCCCCCCCNC(=O)CCCC[N+](C)(C)CC(O)CS(=O)(=O)[O-] (stereo not shown) [Example 21, 3-((5-laurylamino-5-oxopentyl)dimethylammonio)-2-hydroxypropanesulfonate] | 157 | 156 | 153 | 151 | 149 | 147 | 173 | 171 | 170 | 170 | 170 | 169 | 104.5
7 | CCCCCCCCCCCCOC(=O)CCC[N+](C)(C)CC(O)CS(=O)(=O)[O-] (stereo not shown) [Example 4, 3-(3-(Lauryloxycarbonylpropyl)dimethylammonio)-2-hydroxypropanesulfonate] | 142 | 139 | 135 | 132 | 129 | 127 | 173 | 170 | 167 | 162 | 158 | 154 | –
8 | (3-Lauryloxycarbonylpropyl)dimethylammonioacetate [Example 3] | 171 | 170 | 170 | 169 | 169 | 169 | 165 | 162 | 160 | 158 | 158 | 156 | 24.2
9 | (4-Lauryloxycarbonylbutyl)dimethylammonioacetate [Example 8] | – | – | – | – | – | – | 185 | 175 | 170 | 170 | 170 | 165 | –
10 | cocamidopropyl betaine [reference compound] | 160 | 159 | 158 | 158 | 158 | 158 | 174 | 172 | 171 | 171 | 170 | 170 | 12.7
11 | CCCCCCCCCCCCNC(=O)CCC[N+](C)(C)CC(O)CS(=O)(=O)[O-] (stereo not shown) [Example 12, 3-((4-laurylamino-4-oxobutyl)dimethylammonio)-2-hydroxy-propanesulfonate] | 160 | 157 | 155 | 153 | 151 | 150 | 182 | 180 | 178 | 177 | 176 | 175 | 80.9
